Experimental data from patent publication US10842762B2, “Method of treating cardiovascular events using colchicine concurrently with an antiplatelet agent” (Murray and Poole Enterprises, LTD., priority 2012, dated 2020).

Legend:
[1] = system: patients with objectively diagnosed and clinically stable coronary disease; test: LoDoCo Trial: prospective randomized observer blinded end-point trial of colchicine 0.5 mg/day added to standard secondary prevention therapies
Procedure: To assess the therapeutic effects of an immediate release formulation in patients with cardiovascular disease, a prospective randomized observer blinded end-point trial was conducted to determine whether adding 0.5 mg/day of colchicine to standard secondary prevention therapies including aspirin and high dose statins reduces the risk of cardiovascular events in patients with objectively diagnosed and clinically stable coronary disease.
Eligible consenting patients with established coronary disease presenting for routine clinical review were randomized to receive colchicine 0.5 mg/day or no colchicine without any other change to their medical therapy. All outcomes were evaluated by an experienced adjudicator blinded to the treatment allocation.
It was planned to recruit a study population that would include 500 patients planned (532 patients randomized as 32 dropped out early), 250 randomized to the control group and 250 patients randomized to treatment who were tolerant of colchicine for at least 4 weeks after the date of their randomization. Patients were eligible for inclusion if they met each of the following criteria: 1) angiographically proven coronary disease; 2) aged 35 to 85 years; 3) clinically stable for at least 6 months, 4) no major competing co-morbidities or contra-indication to colchicine therapy, 5) considered to be compliant with therapy and attending routine cardiology follow up appointments, and 6) willing to be consented and randomized into the study. Patients with a history of bypass surgery were only eligible if they had undergone bypass surgery more than 10 years before, or had angiographic evidence of graft failure or had undergone stenting since their bypass surgery. All patients signed informed consent before randomization.
The randomization sequence was computer generated, kept concealed from the investigators at all times and was managed by a research assistant who had no involvement in the evaluation or management of study patients. […] Despite electing to use the lowest dose of colchicine available, it was anticipated that a number of patients would withdraw from therapy early after randomization due to gastrointestinal side effects. In order to ensure that the requisite number of patients in the treatment arm were actually tolerant of treatment, the protocol allowed for the research assistant to assign a newly recruited patient to treatment if a patient discontinued colchicine due to side effects in the first month. Patients who were intolerant to therapy remained in the study, and were followed in the usual manner and included in the primary intention to treat analysis.
The drug was dispensed by their usual chemist, and if requested, patients were reimbursed for the cost of these scripts. All other treatments were continued as usual.
Patient compliance with treatment and outcome data were collected at routine follow up visits and at the time of any unplanned hospital admission. An acute coronary syndrome (ACS) was defined as either (a) Acute Myocardial Infarction (AMI), as evidenced by acute ischemic chest pain associated with a rise in serum troponin above the upper limit of normal or (b) Unstable Angina (UA), as evidenced by a recent acceleration of the patient's angina unassociated with a rise in serum troponin but associated with angiographic evidence of a change in the patient's coronary anatomy. […] The ACS was characterized as being stent-related if there was evidence of significant in-stent stenosis or acute stent thrombosis. Out of Hospital Cardiac Arrest was defined as either a sudden death as evidenced on the patient's death certificate, or a non-fatal out of hospital cardiac arrest, defined as a recovery from sudden collapse associated with documented asystole, ventricular tachycardia or ventricular fibrillation.

[2] = system: patients with a first episode of recurrent pericarditis; conditions: at 18 months; conventional treatment with aspirin plus colchicine (1.0-2.0 mg first day, then 0.5-1.0 mg/d for 6 months); vs 50.6% with conventional treatment; cited from earlier work
[3] = No treatment (no antithrombotic), n=1
[4] = Treated with Aspirin + clopidogrel + warfarin, n=2
[5] = Treated with Aspirin + clopidogrel, n=33
[6] = Treated with Aspirin + warfarin, n=6
[7] = Treated with Aspirin alone, n=173
[8] = Treated with Clopidogrel alone or warfarin alone (no aspirin), n=28
[9] = Treated with Clopidogrel alone, n=12
[10] = Treated with Warfarin alone, n=16
[11] = Treated with at least aspirin, n=214
[12] = Treated with at least one antiplatelet drug (aspirin, clopidogrel or combinations), n=226
[13] = Treated with at least one antithrombotic drug (aspirin, clopidogrel or warfarin or combinations), n=242
[14] = of 282 randomized to treatment, colchicine 0.5 mg/day

In the case of `COc1cc2c(c(OC)c1OC)-c1ccc(OC)c(=O)cc1[C@@H](NC(C)=O)CC2` [colchicine, N[5,6,7,9-tetrahydro-1,2,3,10-tetratmethoxy 9-oxobenzo[a]heptalen-7-yl],(S)-acetamide], the “stent related ACS with evidence of acute stent thrombosis, patients” value ([1]; 2 in each group) is reported as 2, the “stent related ACS with evidence of significant in-stent stenosis, patients” value ([1]; 2 in each group) is reported as 2 and the “Primary Outcome, number of patients” value [1, 3] is reported as 0. For the same compound, the “Primary Outcome, percent” value [1, 3] was “(0%)”, the “Primary Outcome, number of patients” value ([1]; Total, colchicine group n=243) was 11 and the “Primary Outcome, percent” value ([1]; Total, colchicine group n=243) was “(4.5%)”. The “Primary Outcome, number of patients” value [1, 4] was 0, the “Primary Outcome, percent” value [1, 4] was “(0%)” and the “Primary Outcome, number of patients” value [1, 5] was 3. For the same compound, the “Primary Outcome, percent” value [1, 5] was “(9%)”, the “Primary Outcome, number of patients” value [1, 6] was 0 and the “Primary Outcome, percent” value [1, 6] was “(0%)”. For the same compound, the “Primary Outcome, number of patients” value [1, 7] was 7, the “Primary Outcome, percent” value [1, 7] was “(4%)” and the “Primary Outcome, number of patients” value [1, 8] was 1. For the same compound, the “Primary Outcome, percent” value [1, 8] was “(3.45%)”, the “Primary Outcome, number of patients” value [1, 9] was 1 and the “Primary Outcome, percent” value [1, 9] was “(8.3%)”. The “Primary Outcome, number of patients” value [1, 10] was 0, the “Primary Outcome, percent” value [1, 10] was “(0%)” and the “Primary Outcome, number of patients” value [1, 11] was 10. The “Primary Outcome, percent” value [1, 11] was “(4.67%)”, the “Primary Outcome, number of patients” value [1, 12] was 11 and the “Primary Outcome, percent” value [1, 12] was “(4.9%)”. The “Primary Outcome, number of patients” value [1, 13] was 11, the “Primary Outcome, percent” value [1, 13] was 4.5% and the “Primary Outcome, percent” value ([1]; Treated with at least one antithrombotic drug (aspirin, clopidogrel or warfarin or combinations), n=242, listed as Colchicine) was “(4.5%)”. For the same compound, the “patients who died of non-cardiac causes” value ([1]; colchicine group, all deaths) was 4 patients, the patients who died ([1]; colchicine group, control group ten) was 4 patients and the “AMI unrelated to stent disease, hazard ratio” value ([1]; colchicine vs control, 95% CI 0.08-0.76, p=0.014) was 0.25. The “UA unrelated to stent disease, hazard ratio” value ([1]; colchicine vs control, 95% CI 0.10-0.75, p=0.011) was 0.27, the “ACS unrelated to stent disease, hazard ratio” value ([1]; colchicine vs control, 95% CI 0.12-0.55, p<0.001) was 0.26 and the “ACS, hazard ratio” value ([1]; colchicine vs control, 95% CI 0.18-0.63, p<0.001) was 0.33. For the same compound, the “primary outcome, number needed to treat” value ([1]; intention-to-treat, colchicine vs control) was 11, the “primary outcome, hazard ratio” value ([1]; intention-to-treat, colchicine vs control, 95% CI 0.18-0.59, p<0.001) was 0.33 and the “primary outcome, percent of patients” value ([1]; intention-to-treat, colchicine 0.5 mg/day, median follow up 36 months, control 16%) was 5.3%. The “primary outcome (ACS, out of hospital cardiac arrest or non-cardio-embolic ischemic stroke), patients with event / patients assigned” value ([1]; intention-to-treat, colchicine 0.5 mg/day, median follow up 36 months, control 40/250) was 15/282, the “ACS unrelated to stent disease associated with an AMI, percent” value ([1]; intention-to-treat, control 5.6%) was 1.4% and the “ACS unrelated to stent disease, UA, percent” value ([1]; intention-to-treat, control 6.4%) was 1.8%. For the same compound, the “ACS unrelated to stent disease, percent” value ([1]; intention-to-treat, control 12%) was 3.2%, the “patients presenting with an ACS, percent” value ([1]; intention-to-treat, control 13.4%) was 4.6% and the “ACS unrelated to stent disease associated with an AMI, patients / patients assigned” value ([1]; intention-to-treat, control 14/250) was 4/282. For the same compound, the “ACS unrelated to stent disease, UA, patients / patients assigned” value ([1]; intention-to-treat, control 16/250) was 5/282, the “ACS unrelated to stent disease, patients / patients assigned” value ([1]; intention-to-treat, control 30/250) was 9/282 and the “patients presenting with an ACS / patients assigned” value ([1]; intention-to-treat, control 34/250) was 13/282. The “early intolerance due to gastrointestinal side effects, patients” value [1, 14] was 32, the “early intolerance due to gastrointestinal side effects, percent” value [1, 14] was 11% and the “events (primary outcome), hazard ratio” value ([1]; on-treatment analysis vs control, 95% CI 0.15-0.56, p<0.001) was 0.29. For the same compound, the “events (primary outcome), percent” value ([1]; on-treatment analysis: compliant and tolerant beyond the first month, control 16%) was 4.5%, the “events (primary outcome), patients / patients compliant and tolerant” value ([1]; on-treatment analysis: compliant and tolerant to therapy beyond the first month, control 40/250) was 11/243 and the “out of hospital cardiac arrest and non-cardio-embolic ischemic stroke” value ([1]; treatment group vs control, infrequent events) was “also reduced”. The “recurrence rate (actuarial rate)” value [2] was 24.0%.
